Data published in US20230390324A1, “TREATMENT OF FATTY LIVER DISEASES” (TX MEDIC AB, priority 2020, published 2023).

What was measured:
[1] = Serum total bilirubin in patients before and after dextran sulfate administration; format: in vivo; conditions: human patients with a neurological disease, 2 mg/kg subcutaneous once a week for ten weeks, week 10 vs week 0, p<0.05, FIG. 1
Experimental: Dextran sulfate (Tikomed A B, Viken, Sweden, WO 2016/076780) was administered at 2 mg/kg by […] subcutaneous injection once a week for ten weeks to human patients suffering from a neurological disease.
Peripheral venous blood samples were collected from patients before (week 0) and after dextran sulfate administration (week 5 and week 10) after at least 15 minutes of complete rest, using the standard tourniquet procedure, from the antecubital vein into a single VACUETTE® polypropylene tube containing serum separator and clot activator (Greiner-Bio One GmbH, Kremsmunster, Austria). After 30 mins at room temperature (20-25° C.), blood withdrawals were centrifuged at 1,890×g for 10 min to get serum aliquots.
A serum aliquot of about 300 μl was light-protected and then processed to extract fat-soluble metabolites using a method described in detail (Lazzarino et al., Single-step preparation of selected biological fluids for the high performance liquid chromatographic analysis of fat-soluble vitamins and antioxidants, J Chromatogr A. 2017; 1527: 43-52). Briefly, samples were supplemented with 1 ml of HPLC-grade acetonitrile, vigorously vortexed for 60 sec and incubated at 37° C. for 1 h in a water bath under agitation to allow the full extraction of lipid soluble compounds. […]

[2] = test system: 12 BioMAP® Diversity Plus human cell systems; assay: BioMAP Diversity PLUS phenotypic profiling in 12 primary human cell and co-culture systems; format: cell-based
Experimental: Twelve primary human cell and co-cultures assays were used to assess the effects of dextran sulfate on clinically-relevant protein biomarkers of inflammation, cell growth and fibrosis as part of the quality controlled BioMAP® Diversity PLUS, commercially available service (Eurofins DiscoverX Corporation, Freemont, CA, USA; for full details https://www.discoverx.com). Dextran sulfate was tested in these assays at four concentrations: 4000 nMw 1300 nMw 400 nM and 150 nM. Human primary cells employed in the BioMAP® systems were used at passage 4 or earlier, derived from multiple donors (n=2 to 6), commercially purchased and handled according to the recommendations of the manufacturers. Human blood derived CD14+ monocytes were differentiated into macrophages in vitro before being added to the IMphg system (Eurofins DiscoverX Corporation).
The cell types and stimuli used in each assay system were as follows: 3C system [Human umbilical vein endothelial cells (HUVEC)+(IL-1β, TNFα and IFNγ)], 4H system [HUVEC+(IL-4 and histamine)], LPS system [Peripheral blood mononuclear cells (PBMC) and HUVEC+LPS (TLR4 ligand)], SAg system [PBMC and HUVEC+TCR ligands], BT system [CD19+ B cells and PBMC+(α-IgM and TCR ligands)], BF4T system [bronchial epithelial cells (BEC) and human neonatal dermal fibroblasts (HDFn)+(TNFα and IL-4)], BE3C system [BEC+(IL-1β, TNFα and IFNγ)], CASM3C system [coronary artery smooth muscle cells (CASMC)+(IL-1β, TNFα and IFNγ)], HDF3CGF system [HDFn+(IL-1β, TNFα, IFNγ, EGF, bFGF and PDGF-BB)], KF3CT system [keratinocytes and HDFn+(IL-1β, TNFα, IFNγ and TGFβ)], MyoF system [differentiated lung myofibroblasts+(TNFα and TGFβ)] and IMphg system [HUVEC and M1 macrophages+Zymosan (TLR2 ligand)].
Assays were derived from either single cell types or co-culture systems. Adherent cell types were cultured in 96 or 384-well plates until confluence, followed by the addition of PBMC (SAg and LPS systems). […] Test agents prepared in either DMSO (small molecules; final concentration 0.1%) or PBS (biologics) were added at the indicated concentrations 1 h before stimulation, and cells remained in culture for 24 h or as otherwise indicated (48 h, MyoF system; 72 h, BT system (soluble readouts); 168 h, BT system (secreted IgG)). […] Soluble factors from supernatants were quantified using either HTRF® detection, bead-based multiplex immunoassay or capture ELISA. Overt adverse effects of dextran sulfate on cell proliferation and viability (cytotoxicity) were detected by sulforhodamine B (SRB) staining for adherent cells, and alamarBlue® reduction for cells in suspension. For proliferation assays, individual cell types were cultured at subconfluence and measured at time points optimized for each system (48 h: 3C and CASM3C systems; 72 h: BT and HDF3CGF systems; 96 h: SAg system). Cytotoxicity for adherent cells was measured by SRB (24 h: 3C, 4H, LPS, SAg, BF4T, BE3C, CASM3C, HDF3CGF, KF3CT, and IMphg systems; 48 h: MyoF system), and by alamarBlue® staining for cells in suspension (24 h: SAg system; 42 h: BT system) at the time points indicated.
Biomarker measurements in dextran sulfate-treated samples were divided by the average of the control samples (at least 6 vehicle controls from the same plate) to generate a ratio that was then log10 transformed. Significance prediction envelopes were calculated using historical vehicle control data at a 95% confidence interval. […]

[3] = test system: Human Schwann cells (ATCC CRL-2884™); assay: Gene expression study in cultured human Schwann cells (microarray, IPA network analysis); format: cell-based; conditions: 0.01 mg/ml, 48 hours
Experimental: Human Schwann cells (ATCC CRL-2884™) were cultured in 25 cm^2 culture flasks coated with poly-d-lysine and laminin) in high-glucose DMEM with 10% fetal bovine serum (FBS) (n=8) and incubated at 37° C./5% CO2. Twenty-four house after seeding (Day 0) cells were treated once with either dextran sulfate (0.01 mg/ml in DMEM) or culture media. After 48 hours with treatment, the media were removed and cells were harvested in 2.5 ml Trizol:Water (4:1) solution containing 0.5 ml of chloroform at room temperature (RT). The flasks were inspected under the microscope to ensure full removal of cells. The collected lysates were stored at −80° C.
Lysates were left to equilibrate for 5 minutes at room temperature to permit the complete dissociation of nucleoprotein complexes. 1 ml lysate was removed from each sample and 200 μL of chloroform was added to each and the tube was shaken vigorously. Samples were stored at room temperature for 2-3 minutes and subsequently centrifuged at 12,000×g/15 min at 4° C. The mixture separated into 3 layers: a lower red phenol-chloroform phase, an interphase and a colorless upper aqueous phase. The top % of the aqueous phase (containing the RNA) was transferred to a new clean Eppendorf tube. The RNA was precipitated from the aqueous phase by adding an equal amount of 100% ethanol. The precipitated RNA was fixed onto a Spin Cartridge, washed twice and dried. The RNA was eluted in 50 μL warm RNase-Free Water. The amount and quality of the purified RNA was measured by Nanodrop. The RNA was stored at −80° C. before transfer to Source Bioscience for Gene Array analysis.
The background corrected expression data from each sample were downloaded into a separate file. The background corrected signal was log2 transformed for all samples for statistical analysis. To reduce the false discovery rate in the samples, the signals that were below ‘expression level’ were removed. The ‘below expression’ level was set at 5 for the log2 transformed expression values. (The expression value of the MAPT gene, which is not normally expressed in Schwann cells, was <5. However, the expression of usual ‘control’ gene ACTB (A_32_P137939; ACTB) was comfortably above 5).
MetaboAnalyst (Chong and Xia, MetaboAnalystR: an R package for flexible and reproducible analysis of metabolomics data, Bioinformatics 34(24): 4313-4314 (2018)) was used to analyze the gene expression profiles. […]
Additionally, a preliminary analysis was carried out to screen out genes that were not differentially expressed between any combinations of the three datasets. […] The remaining probe sets were analyzed for fold change and significance using Volcano plots (Qlucore, Lund, Sweden). […]

[4] = protein level, BioMAP Diversity Plus

Dextran sulfate
circulating levels of total bilirubin (free bilirubin + conjugated bilirubin) [1]: significant time-dependent decrease | overall analysis of the responses of the 12 model systems ([2]; 150-4000 nM, FIG. 3): modulated inflammatory and immunoregulatory cytokines and molecules, tissue remodeling pathways (including activation of matrix degrading enzymes) and hemostasis activity | cytotoxicity (SRB staining / alamarBlue reduction) ([2]; all human culture systems evaluated, 150, 400, 1300 and 4000 nM): no cytotoxicity evident | CXCL9 levels [2, 4]: reduced levels | CXCL10 levels [2, 4]: reduced levels | CXCL11 levels [2, 4]: reduced levels | effect on inflammatory genes (molecular network analysis) ([3]; FIG. 5B): resolution of the normal inflammatory response | expression of the anti-fibrotic proteoglycan decorin ([3]; TGFβ-regulated gene network): upregulating | share of molecules of the TGFβ-regulated fibrosis network whose expression was regulated ([3]; 14 of 165 molecules, p<0.001): 8.5% | number of molecules of the TGFβ-regulated mechanistic network responsible for fibrosis whose expression was regulated ([3]; of 165 molecules, p<0.001): 14
